From PubChem BioAssay AID256 (DTP/NCI, 2004)
Several values for one entry are separate records, joined by “and”; a condition that tells them apart may be missing. Equal values may be shown once. Toxic doses and inconclusive results are not listed. Rule for the calls: active = survival T/C of 150% or more; inactive = T/C below 125% in these data.

Tested on: CD2F1 mice, L1210 leukemia ip, survival T/C
Experiment: NCI In Vivo Anticancer Drug Screen. Data for tumor model L1210 Leukemia (intraperitoneal) in CD2F1 (CDF1) mice
Conditions: higher = longer survival
Method in brief: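 Antitumor effect is scored in animals hosting a serially transplanted tumor. Values compare compound-dosed animals against vehicle-only controls as a simple quotient.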

[1] = endpoint: mean survival time, dose: 100.0 mg/kg/injection, schedule: Q01DX009 (ip), vehicle: saline with Tween-80
[2] = endpoint: mean survival time, dose: 200.0 mg/kg/injection, schedule: Q01DX009 (ip), vehicle: saline with Tween-80
[3] = endpoint: mean survival time, dose: 400.0 mg/kg/injection, schedule: Q01DX009 (ip), vehicle: saline with Tween-80
[4] = endpoint: mean survival time, dose: 100.0 mg/kg/injection, schedule: Q01DX001 (ip), vehicle: saline with Tween-80
[5] = endpoint: mean survival time, dose: 100.0 mg/kg/injection, schedule: Q04DX003 (ip), vehicle: saline with Tween-80
[6] = endpoint: mean survival time, dose: 200.0 mg/kg/injection, schedule: Q01DX001 (ip), vehicle: saline with Tween-80
[7] = endpoint: mean survival time, dose: 200.0 mg/kg/injection, schedule: Q04DX003 (ip), vehicle: saline with Tween-80
[8] = endpoint: mean survival time, dose: 400.0 mg/kg/injection, schedule: Q01DX001 (ip), vehicle: saline with Tween-80
[9] = endpoint: mean survival time, dose: 400.0 mg/kg/injection, schedule: Q04DX003 (ip), vehicle: saline with Tween-80
[10] = endpoint: mean survival time, dose: 100.0 mg/kg/injection, schedule: Q04DX002 (ip), vehicle: saline
[11] = endpoint: mean survival time, dose: 200.0 mg/kg/injection, schedule: Q04DX002 (ip), vehicle: saline
[12] = endpoint: mean survival time, dose: 400.0 mg/kg/injection, schedule: Q04DX002 (ip), vehicle: saline

Measured: T/C

Cn1/c2cc/c1=C(\c1ccc(S(=O)(=O)O)cc1)c1ccc([n-]1)/C(c1ccc(S(=O)(=O)O)cc1)=c1/cc/c([nH]1)=C(\c1ccc(S(=O)(=O)O)cc1)c1ccc([n-]1)/C=2c1ccc(S(=O)(=O)O)cc1.O.O=S(=O)(O)C(F)(F)F.[Cu+2]
inactive: endpoint: median survival time, dose: 6.25 mg/kg/injection, schedule: Q01DX009 (ip), vehicle: saline 101 % of control | endpoint: median survival time, dose: 12.5 mg/kg/injection, schedule: Q01DX009 (ip), vehicle: saline 104 % of control | endpoint: median survival time, dose: 25.0 mg/kg/injection, schedule: Q01DX009 (ip), vehicle: saline 103 % of control | endpoint: median survival time, dose: 50.0 mg/kg/injection, schedule: Q01DX009 (ip), vehicle: saline 112 % of control | endpoint: median survival time, dose: 100.0 mg/kg/injection, schedule: Q01DX009 (ip), vehicle: saline 103 % of control

O=[N+]([O-])c1cc(Cl)ccc1NC(Nc1ccc(Cl)cc1[N+](=O)[O-])C(Cl)(Cl)Cl
inactive: [1] 101 % of control | [2] 106 % of control | [3] 101 % of control

CC(CC(C)C(=O)O)C(=O)O (stereo unspecified)
inactive: [1] 100 % of control | [2] 105 % of control

CN(C)S(=O)(=O)C(C)(C)c1ccccc1
inactive: [4] 100 % of control | [1] 96 % of control | [5] 94 % of control | [6] 101 % of control | [2] 96 % of control | [7] 94 % of control | [8] 100 % of control | [9] 96 % of control

CCCCCCCCCCCCCCCCCCCOc1ccc(OCCCCCCCCCCCCCC)cc1
inactive: [4] 86 % of control | [6] 88 % of control | [8] 88 % of control

CCC(C)CC(N)O (stereo unspecified)
inactive: endpoint: mean survival time, dose: 75.0 mg/kg/injection, schedule: Q01DX001 (ip), vehicle: saline 103 % of control | endpoint: mean survival time, dose: 150.0 mg/kg/injection, schedule: Q01DX001 (ip), vehicle: saline 97 % of control

CC(c1ccccc1)n1cncc1C(=O)O (stereo unspecified)
inactive: [4] 106 % of control | [6] 97 % of control | [8] 95 % of control

Cc1ccc(C(=O)CCC(=O)O)c(C)c1
inactive: [1] 100 % of control | [2] 105 % of control | [3] 98 % of control

CC1(C)NC(=O)N(Br)C1=O
inactive: [1] 88 % of control | [5] 103 % of control | [2] 89 % of control | [7] 96 % of control | [9] 103 % of control

O=C(Nc1cccc(F)c1)c1ccco1
inactive: endpoint: mean survival time, dose: 100.0 mg/kg/injection, schedule: Q04DX003 (ip), vehicle: Klucel (hydroxypropylcellulose) (HPC) 94 % of control | endpoint: mean survival time, dose: 200.0 mg/kg/injection, schedule: Q04DX003 (ip), vehicle: Klucel (hydroxypropylcellulose) (HPC) 88 % of control | endpoint: mean survival time, dose: 400.0 mg/kg/injection, schedule: Q04DX003 (ip), vehicle: Klucel (hydroxypropylcellulose) (HPC) 91 % of control

O=C(CCCCl)Oc1ccccc1
inactive: [5] 87 % of control | [7] 87 % of control | [9] 103 % of control

COC(=O)/C=C/C=C/C(=O)OC
inactive: [1] 96 % of control | [5] 103 % of control | [2] 96 % of control | [7] 112 % of control | [3] 104 % of control | [9] 103 % of control

CNP1(=O)OC(c2ccccc2)=CCN1CCCl (stereo unspecified)
inactive: endpoint: median survival time, dose: 31.25 mg/kg/injection, schedule: Q01DX001 (ip), vehicle: distilled water + Tween-80 102 % of control | endpoint: median survival time, dose: 62.5 mg/kg/injection, schedule: Q01DX001 (ip), vehicle: distilled water + Tween-80 106 % of control | endpoint: median survival time, dose: 125.0 mg/kg/injection, schedule: Q01DX001 (ip), vehicle: distilled water + Tween-80 96 % of control | endpoint: median survival time, dose: 250.0 mg/kg/injection, schedule: Q01DX001 (ip), vehicle: distilled water + Tween-80 96 % of control

O=C(CSC1=NCCN1)c1ccccc1
inactive: endpoint: mean survival time, dose: 12.5 mg/kg/injection, schedule: Q01DX009 (ip), vehicle: saline 101 % of control | endpoint: mean survival time, dose: 25.0 mg/kg/injection, schedule: Q01DX009 (ip), vehicle: saline 101 % of control | endpoint: mean survival time, dose: 50.0 mg/kg/injection, schedule: Q01DX009 (ip), vehicle: saline 102 % of control

CCOc1ccc(Nc2c3ccccc3nc3ccccc23)cc1
inactive: [2] 88 % of control

CC1C([N+]2(C)CCCCC2)CS1(=O)=O (stereo unspecified)
inactive: [10] 103 % of control | [11] 100 % of control | [12] 95 % of control

CC1CCOC(C)(C)O1 (stereo unspecified)
inactive: [10] 100 % of control | [11] 86 % of control | [12] 104 % of control

COc1ccc(-c2csc(=[N+]3CCCCC3)s2)cc1
inactive: endpoint: mean survival time, dose: 1.56 mg/kg/injection, schedule: Q01DX009 (ip), vehicle: water 94 % of control and 102 % of control | endpoint: mean survival time, dose: 3.12 mg/kg/injection, schedule: Q01DX009 (ip), vehicle: water 96 % of control and 102 % of control | endpoint: mean survival time, dose: 6.25 mg/kg/injection, schedule: Q01DX009 (ip), vehicle: water 96 % of control and 98 % of control | endpoint: mean survival time, dose: 12.5 mg/kg/injection, schedule: Q01DX009 (ip), vehicle: water 98 % of control and 106 % of control | endpoint: mean survival time, dose: 25.0 mg/kg/injection, schedule: Q01DX009 (ip), vehicle: water 113 % of control and 109 % of control

NC1C(O)C(N)C(O)C(O)C1O (stereo unspecified)
inactive: endpoint: mean survival time, dose: 100.0 mg/kg/injection, schedule: Q01DX009 (ip), vehicle: saline sonified 90 % of control | endpoint: mean survival time, dose: 200.0 mg/kg/injection, schedule: Q01DX009 (ip), vehicle: saline sonified 95 % of control | endpoint: mean survival time, dose: 400.0 mg/kg/injection, schedule: Q01DX009 (ip), vehicle: saline sonified 95 % of control

Nc1nc2c(ncn2-c2ccccc2F)c(=O)[nH]1
inactive: endpoint: mean survival time, dose: 25.0 mg/kg/injection, schedule: Q01DX001 (ip), vehicle: saline with Tween-80 102 % of control | endpoint: mean survival time, dose: 50.0 mg/kg/injection, schedule: Q01DX001 (ip), vehicle: saline with Tween-80 106 % of control | [4] 94 % of control and 98 % of control
